Assay results reported in US20160187320A1, “ASSAY FOR SCREENING COMPOUNDS THAT SELECTIVELY DECREASE THE NUMBER OF CANCER STEM CELLS” (THE ROGOSIN INSTITUTE, priority 2011, published 2016).

What was measured:
[1] = system: Docetaxel resistant (DR) cells (DU145-DR, 22RV1-DR); assay: Cross-resistance of Docetaxel resistant (DR) cells; assay type: cell-based, human; conditions: data not shown
22RV1 cells = assay: Cell viability assay (MTS), parental 22RV1; assay type: cell-based; conditions: Homo sapiens; parental 22RV1, 72 hours; read-out: Docetaxel IC50
Description: (§1) Human hormone-independent prostate cancer cell lines, DU-145 and 22RV1, were obtained from American Type Culture Collection (ATCC) and maintained in RPMI 1640 medium (Gibco, Invitrogen Corp., Carlsbad, Calif.) supplemented with 10% FBS without antibiotics. Cells were grown at 37° C. in a humidified atmosphere with 5% CO2. DU145 and 22RV1 cells were selected in order to generate a prostate cancer Docetaxel resistance model. […] Thus, the generation of acquired Docetaxel resistance in these two phenotypically distinct cell lines facilitated an approach to study the molecular processes involved in the acquisition of Docetaxel resistance. Docetaxel resistant clones, DU-145-DR and 22RV1-DR, were selected by culturing cells with Docetaxel in a dose-escalation manner. Initial culture was at 5 nM Docetaxel. […]
(§2) Cell viability was analyzed using the Cell titer 96 Aquos Non-Reactive Cell Proliferation Assay (MTS) kit (Promega Corp., Madison, Wis.). […] After 72 hours, color absorbance was measured on a microplate spectrophotometer (Molecular Dynamics) at 450 nm (test wavelength) and 620 nm (reference wavelength). […] Cells were then fixed with 4% paraformaldehyde in PBS, stained with crystal violet solution and formed colonies were visually counted.

22RV1-DR cells = assay: Cell viability assay (MTS), Docetaxel resistant 22RV1-DR; assay type: cell-based, human; conditions: for IC50: Homo sapiens
Description: as §1, with “Docetaxel. After the sensitive clones were no longer present and the surviving DU-145 and 22RV1 cells repopulated the flask, the concentration of Docetaxel was increased to 10 nM and subsequently to 25 nM, 50 nM, 100 nM and 250 nM. 22RV1-DR cells were further exposed to 500 nM Docetaxel. After exposure to each increasing dose of Docetaxel, the remaining surviving cells were maintained in culture medium containing the last selection escalating dose of Docetaxel. The last drug selection concentration at which the cells were exposed was 250 nM for DU-145-DR and 500 nM for 22RV1-DR, in order to avoid reversibility of the acquired Docetaxel resistance phenotype. The process of acquired drug resistance took 9 months for DU-145-DR and 6.5 months for 22RV1-DR.” for “Docetaxel.”
as §2

DU145 cells = assay: Cell viability assay (MTS), parental DU145; assay type: cell-based; conditions: Homo sapiens, DU-145; parental DU145, 72 hours; read-out: Docetaxel IC50
Description: as §1, §2

DU145-DR cells = assay: Cell viability assay (MTS), Docetaxel resistant DU145-DR; assay type: cell-based, human; conditions: for IC50: Homo sapiens
Description: as §1, with “Docetaxel. After the sensitive clones were no longer present and the surviving DU-145 and 22RV1 cells repopulated the flask, the concentration of Docetaxel was increased to 10 nM and subsequently to 25 nM, 50 nM, 100 nM and 250 nM. 22RV1-DR cells were further exposed to 500 nM Docetaxel. After exposure to each increasing dose of Docetaxel, the remaining surviving cells were maintained in culture medium containing the last selection escalating dose of Docetaxel. The last drug selection concentration at which the cells were exposed was 250 nM for DU-145-DR and 500 nM for 22RV1-DR, in order to avoid reversibility of the acquired Docetaxel resistance phenotype. The process of acquired drug resistance took 9 months for DU-145-DR and 6.5 months for 22RV1-DR.” for “Docetaxel.”
as §2

[2] = system: 22RV1 and DU145 parental (sensitive) cells; assay: Colony formation assay, Docetaxel sensitive parental cells; assay type: cell-based, human; conditions: continuous Docetaxel for 21 days (25 nM in 22RV1, 5 nM in DU145)
Description: (§3) Cell viability was analyzed using the Cell titer 96 Aquos Non-Reactive Cell Proliferation Assay (MTS) kit (Promega Corp., Madison, Wis.). Cells were seeded at a density of 10^4 in 96-well culture dishes and 24 hours later medium was removed and replaced with new medium alone (control) or medium containing drugs. After 72 hours, color absorbance was measured on a microplate spectrophotometer (Molecular Dynamics) at 450 nm (test wavelength) and 620 nm (reference wavelength). The percentage of surviving cells was estimated by dividing the A 450 nm-A 620 nm of treated cells by the A 450 nm-A 620 nm of control cells. Clonogenic survival assays in response to drug treatment were performed by plating 10^3 cells in 35 mm culture dishes. After 24 hours, cells were left untreated (control) or treated with drugs. Next day, medium was changed and the cells kept growing in fresh medium without any drug or under continuous exposure to drugs. For these continuous exposure experiments, medium plus drugs were replaced every 3 days until clones of drug-resistant cells appeared. Cells were then fixed with 4% paraformaldehyde in PBS, stained with crystal violet solution and formed colonies were visually counted.

[3] = system: 22RV1-DR and DU145-DR (resistant) cells; assay: Colony formation assay, Docetaxel resistant cells; assay type: cell-based, human; conditions: continuous Docetaxel for 21 days
Description: as §3

[4] = system: DU145-CK19 promoter-GFP stable cells; assay: Flow cytometry of GFP populations surviving Docetaxel; assay type: cell-based, human; conditions: Docetaxel 10 nM, 48 hours
From the text: CK19 gene promoter region was amplified from DU145 cells genomic DNA by PCR with specific primer sets (Fw 5′-[…]-3′ (SEQ ID NO: 1) and Rv 5′-[…]-3′ (SEQ ID NO: 2)) as described previously (Tripathi et al., 2005. The PCR products were digested with Ase I and Hind III and cloned into pEGFPN1 vector (Clontech, Mountain View, Calif.) previously digested with the same enzymes. As a result, the CMV promoter was removed from the original vector and the GFP expression was under control of the CK19 promoter. The final construct was confirmed by digestion and sequencing analysis. DU145 cells were transfected with pCK19-GFP construct using Lipofectamine Plus 2000 (Invitrogen). After 24 hours, medium was replaced with fresh medium and stably expressing cells selected in the presence of G418 (Invitrogen). Positive clones were confirmed by direct microscopy and immunofluorescence and also by PCR amplification of GFP coding region using specific primers (Fw 5′-[…]-3′ (SEQ ID NO: 3) and Rv 5′-[…]-3′ (SEQ ID NO: 4)).
Flow cytometry analysis of subpopulations of prostate cancer cells were carried out following standard procedures. Intracellular CK19 and CK18 expression was performed in single-cell suspensions fixed with 70% ethanol, whereas the expression of cell surface HLA class I and GFP was determined in fresh cell samples (without fixation). […] A minimum of 10^4 cells were measured per sample.

[5] = system: DU145-CK19 promoter-GFP stable cells sorted by GFP/HLA class I; assay: Colony formation assay of GFP/HLA class I sorted cells under Docetaxel; assay type: cell-based, human; conditions: Docetaxel 10 nM continuously
Description: as §3

N.N.[Cl][Pt][Cl] [Cisplatin]
cross-resistance of Docetaxel resistant cells [1]: cross-resistance

CC(=O)O[C@@]12CO[C@@H]1C[C@H](O)[C@@]1(C)C(=O)[C@H](O)C3=C(C)[C@@H](OC(=O)[C@H](O)[C@@H](NC(=O)OC(C)(C)C)c4ccccc4)C[C@@](O)([C@@H](OC(=O)c4ccccc4)[C@H]21)C3(C)C [Docetaxel]
IC50 (22RV1 cells): 25 nM | fold increase of Docetaxel IC50 (22RV1-DR cells; 22RV1-DR versus 22RV1): 400 fold | IC50 (22RV1-DR cells; 22RV1-DR acquired resistant cells, 72 hours): 10 µM | IC50 (22RV1-DR cells; 22RV1-DR after 12 weeks of drug withdrawal): 0.05 µM | IC50 (DU145 cells): 5 nM | fold increase of Docetaxel IC50 (DU145-DR cells; DU145-DR versus DU145): 200 fold | IC50 (DU145-DR cells; DU145-DR acquired resistant cells, 72 hours): 1000 nM | IC50 (DU145-DR cells; DU145-DR after 12 weeks of drug withdrawal): 25 nM | colony formation [2]: No colonies were observed | colony formation [3]: colonies were observed | GFP-negative phenotype, % of the total population after treatment ([4]; initially 6.4±4.3%): 73.1±10.2% | GFP-positive phenotype, % of the total cell population after treatment ([4]; initially 87.5±10.4%): 28.3±10.6% | clone formation under continuous exposure [5]: only tumour cells with a GFP-negative/HLA class I-negative phenotype were able to form clones

COc1cccc2c1C(=O)c1c(O)c3c(c(O)c1C2=O)C[C@@](O)(C(=O)CO)C[C@@H]3O[C@H]1C[C@H](N)[C@H](O)[C@H](C)O1 [Doxorubicin]
cross-resistance of Docetaxel resistant cells [1]: cross-resistance

O=C1c2c(O)ccc(O)c2C(=O)c2c(NCCNCCO)ccc(NCCNCCO)c21 [Mitoxantrone]
cross-resistance of Docetaxel resistant cells [1]: cross-resistance

CC(=O)O[C@H]1C(=O)[C@@]2(C)[C@H]([C@H](OC(=O)c3ccccc3)[C@]3(O)C[C@H](OC(=O)[C@H](O)[C@@H](NC(=O)c4ccccc4)c4ccccc4)C(C)=C1C3(C)C)[C@]1(OC(C)=O)CO[C@@H]1C[C@@H]2O [Paclitaxel]
cross-resistance of Docetaxel resistant cells [1]: cross-resistance

CCC1=C[C@@H]2CN(C1)Cc1c([nH]c3ccccc13)[C@@](C(=O)OC)(c1cc3c(cc1OC)N(C)[C@H]1[C@@](O)(C(=O)OC)[C@H](OC(C)=O)[C@]4(CC)C=CCN5CC[C@]31[C@@H]54)C2 [Vinorelbine]
cross-resistance of Docetaxel resistant cells [1]: cross-resistance
